Test results as given in patent US8852554B2, “Radiolabelled PDE10 ligands” (Janssen Pharmaceutica NV, priority 2009, dated 2014).
Counter-ions that a name gives are not always drawn.

Target: T1, Rat recombinant PDE10A (rPDE10A) (Rattus norvegicus, UniProt Q9QYJ6)
T1 construct: made in house; host or cells: Sf9 insect cells (baculovirus)
T1 sequence (Q9QYJ6 1-794): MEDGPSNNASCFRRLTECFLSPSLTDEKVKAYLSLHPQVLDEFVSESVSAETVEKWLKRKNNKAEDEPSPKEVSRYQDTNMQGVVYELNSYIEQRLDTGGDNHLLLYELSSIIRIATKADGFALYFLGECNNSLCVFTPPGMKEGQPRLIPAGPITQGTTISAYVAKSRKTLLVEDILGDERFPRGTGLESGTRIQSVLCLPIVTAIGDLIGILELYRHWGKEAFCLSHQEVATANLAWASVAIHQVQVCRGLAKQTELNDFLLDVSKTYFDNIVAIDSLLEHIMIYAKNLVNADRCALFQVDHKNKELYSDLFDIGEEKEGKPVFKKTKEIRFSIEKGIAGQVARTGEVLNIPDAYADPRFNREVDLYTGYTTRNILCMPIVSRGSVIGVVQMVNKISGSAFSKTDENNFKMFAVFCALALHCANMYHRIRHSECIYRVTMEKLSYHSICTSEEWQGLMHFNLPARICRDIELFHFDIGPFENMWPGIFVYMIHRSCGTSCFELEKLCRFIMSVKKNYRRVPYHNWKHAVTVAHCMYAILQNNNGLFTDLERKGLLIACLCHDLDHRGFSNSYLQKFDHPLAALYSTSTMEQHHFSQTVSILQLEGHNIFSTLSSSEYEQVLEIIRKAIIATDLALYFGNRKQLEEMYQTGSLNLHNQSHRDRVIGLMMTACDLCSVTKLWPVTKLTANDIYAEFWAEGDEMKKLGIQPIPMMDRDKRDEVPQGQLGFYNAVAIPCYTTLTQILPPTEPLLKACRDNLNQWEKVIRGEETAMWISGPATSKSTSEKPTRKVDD
Test: rat PDE10A2-cAMP inhibition, in vitro SPA assay
Assay type: biochemical
Details: 60 nM cAMP substrate
Experimental: Rat recombinant PDE10A (rPDE10A) was expressed in Sf9 cells using a recombinant rPDE10A baculovirus construct. Cells were harvested after 48 h of infection and the rPDE10A protein was purified by metal chelate chromatography on Ni-sepharose 6FF. Tested compounds were dissolved and diluted in 100% DMSO to a concentration 100 fold of the final concentration in the assay. Compound dilutions (0.4 μl) were added in 384 well plates to 20 μl of incubation buffer (50 mM Tris pH 7.8, 8.3 mM MgCl2, 1.7 mM EGTA). 10 μl of rPDE10A enzyme in incubation buffer was added and the reaction was started by addition of 10 μl substrate to a final concentration of 60 nM cAMP and 0.008 μCi 3H-cAMP. The reaction was incubated for 60 minutes at room temperature. […] After sedimentation of the beads during 30 minutes, the radioactivity was measured in a Perkin Elmer Topcount scintillation counter and results were expressed as cpm. For blanc values the enzyme was omitted from the reaction and replaced by incubation buffer. Control values were obtained by addition of a final concentration of 1% DMSO instead of compound.
Molecule `Cc1cccc(COc2ccc(-c3nn(CCF)cc3-c3ccncc3)cc2)n1` [Compound B1, 2-[[4-[1-(2-fluoroethyl)-4-(4-pyridinyl)-1H-pyrazol-3-yl]phenoxy]methyl]-6-methyl-pyridine.dihydrochloride] has a pIC50 of 8.6. For `Cc1cccc(COc2ccc(-c3nn(CCCF)cc3-c3ccncc3)cc2)n1` [Compound B2, 2-[[4-[1-(3-fluoropropyl)-4-(4-pyridinyl)-1H-pyrazol-3-yl]phenoxy]methyl]-6-methyl-pyridine.hydrochloride], the pIC50 was 7.7. `Cc1cnc(COc2ccc(-c3nn(CCF)cc3-c3ccncc3)cc2)c(C)c1` [Compound B3, 2-[[4-[1-(2-fluoroethyl)-4-(4-pyridinyl)-1H-pyrazol-3-yl]phenoxy]methyl]-3,5-dimethyl-pyridine.succinate] showed an IC50 of 1.62 nM. With `FCCn1cc(-c2ccncc2)c(-c2ccc(OCc3cccc(Br)n3)cc2)n1` [Compound B6, 2-bromo-6-[[4-[1-(2-fluoroethyl)-4-(4-pyridinyl)-1H-pyrazol-3-yl]phenoxy]methyl]-pyridine.0.75 succinate] the IC50 was 9.77 nM. In the case of `FCCn1cc(-c2ccncc2)c(-c2ccc(OCc3cccc(C(F)(F)F)n3)cc2)n1` [Compound B7, 2-[[4-[1-(2-fluoroethyl)-4-(4-pyridinyl)-1H-pyrazol-3-yl]phenoxy]methyl]-6-(trifluoromethyl)-pyridine], the IC50 is reported as 110 nM. Work on `FCCn1cc(-c2ccncc2)c(-c2ccc(OCc3cccc(C4CC4)n3)cc2)n1` [Compound B8, 2-Cyclopropyl-6-[[4-[1-(2-fluoroethyl)-4-(4-pyridinyl)-1H-pyrazol-3-yl]phenoxy]methyl]-pyridine.succinate] yielded an IC50 of 33.1 nM. With `FCCOc1cccnc1COc1ccc(-c2nn(CC(F)(F)F)cc2-c2ccncc2)cc1` [Compound B10, 3-(2-fluoroethoxy)-2-[[4-[4-(4-pyridinyl)-1-(2,2,2-trifluoroethyl)-1H-pyrazol-3-yl]phenoxy]methyl]-pyridine.succinate] the IC50 was 6.31 nM. In the case of `FCCOc1ccc(COc2ccc(-c3nn(CC(F)(F)F)cc3-c3ccncc3)cc2)nc1` [Compound B11, 5-(2-fluoroethoxy)-2-[[4-[4-(4-pyridinyl)-1-(2,2,2-trifluoroethyl)-1H-pyrazol-3-yl]phenoxy]methyl]-pyridine], the IC50 is reported as 107 nM. For `FCCCn1cc(-c2ccncc2)c(-c2ccc(OCc3ncccc3OCCF)cc2)n1` [Compound B13, 3-(2-fluoroethoxy)-2-[[4-[1-(3-fluoropropyl)-4-(4-pyridinyl)-1H-pyrazol-3-yl]phenoxy]methyl]pyridine.succinate], the IC50 was 13.8 nM. With `COc1ccc(COc2ccc(-c3nn(CCCF)cc3-c3ccncc3)cc2)nc1` [Compound B14, 2-[[4-[1-(3-fluoropropyl)-4-(4-pyridinyl)-1H-pyrazol-3-yl]phenoxy]methyl]-5-methoxy-pyridine.0.5 succinate] the IC50 was 14.5 nM. `COc1cccnc1COc1ccc(-c2nn(CCF)cc2-c2ccncc2)cc1` [Compound B16, 2-[[4-[1-(2-fluoroethyl)-4-(4-pyridinyl)-1H-pyrazol-3-yl]phenoxy]methyl]-3-methoxy-pyridine.succinate] gave an IC50 of 3.72 nM. Work on `FCCOc1cccnc1COc1ccc(-c2nn(CCF)cc2-c2ccncc2)cc1` [Compound B17, 3-(2-fluoroethoxy)-2-[[4-[1-(2-fluoroethyl)-4-(4-pyridinyl)-1H-pyrazol-3-yl]phenoxy]methyl]pyridine.succinate] yielded an IC50 of 3.8 nM. `FCCn1cc(-c2ccncc2)c(-c2ccc(OCc3ncccc3F)cc2)n1` [Compound B18, 3-fluoro-2-[[4-[1-(2-fluoroethyl)-4-(4-pyridinyl)-1H-pyrazol-3-yl]phenoxy]methyl]-pyridine.1.2 succinate] showed an IC50 of 16.2 nM. In the case of `N#Cc1ccc(COc2ccc(-c3nn(CCF)cc3-c3ccncc3)cc2)nc1` [Compound B21, 6-[[4-[1-(2-fluoroethyl)-4-(4-pyridinyl)-1H-pyrazol-3-yl]phenoxy]methyl]-3-pyridinecarbonitrile], the pIC50 is reported as 7.1. In the case of `FCCn1cc(-c2ccncc2)c(-c2ccc(OCc3ccc(C4CC4)cn3)cc2)n1` [Compound B23, 5-cyclopropyl-2-[[4-[1-(2-fluoroethyl)-4-(4-pyridinyl)-1H-pyrazol-3-yl]phenoxy]methyl]-pyridine], the IC50 is reported as 34.7 nM. `COc1cccc(COc2ccc(-c3nn(CCF)cc3-c3ccncc3)cc2)n1` [Compound B24, 2-[[4-[1-(2-fluoroethyl)-4-(4-pyridinyl)-1H-pyrazol-3-yl]phenoxy]methyl]-6-methoxy-pyridine.succinate] gave an IC50 of 2.95 nM. Work on `CCOc1cccc(COc2ccc(-c3nn(CCF)cc3-c3ccncc3)cc2)n1` [Compound B25, 2-ethoxy-6-[[4-[1-(2-fluoroethyl)-4-(4-pyridinyl)-1H-pyrazol-3-yl]phenoxy]methyl]-pyridine.succinate] yielded an IC50 of 20.9 nM. Molecule `Cc1cnc(COc2ccc(-c3nn(CCF)cc3-c3ccncc3)cc2)c(C)c1C` [Compound B28, 2-[[4-[1-(2-fluoroethyl)-4-(4-pyridinyl)-1H-pyrazol-3-yl]phenoxy]methyl]-3,4,5-trimethyl-pyridine.succinate] has an IC50 of 4.37 nM.

Tested on: not given
Test: not given
Details: not given
Work on `Cc1cccc(COc2ccc(-c3nn(CCF)cc3-c3ccncc3)cc2)n1` (as salt: hydrochloride) [Compound B1, 2-[[4-[1-(2-fluoroethyl)-4-(4-pyridinyl)-1H-pyrazol-3-yl]phenoxy]methyl]-6-methyl-pyridine.dihydrochloride] yielded a melting point of 227.22 °C. `Cc1cccc(COc2ccc(-c3nn(CCCF)cc3-c3ccncc3)cc2)n1` (as salt: hydrochloride) [Compound B2, 2-[[4-[1-(3-fluoropropyl)-4-(4-pyridinyl)-1H-pyrazol-3-yl]phenoxy]methyl]-6-methyl-pyridine.hydrochloride] gave a melting point of 106.51 °C. With `FCCn1cc(-c2ccncc2)c(-c2ccc(OCc3cccc(Br)n3)cc2)n1` (as salt: succinate) [Compound B6, 2-bromo-6-[[4-[1-(2-fluoroethyl)-4-(4-pyridinyl)-1H-pyrazol-3-yl]phenoxy]methyl]-pyridine.0.75 succinate] the melting point was 108.78 °C. Work on `FCCn1cc(-c2ccncc2)c(-c2ccc(OCc3cccc(C4CC4)n3)cc2)n1` (as salt: succinate) [Compound B8, 2-Cyclopropyl-6-[[4-[1-(2-fluoroethyl)-4-(4-pyridinyl)-1H-pyrazol-3-yl]phenoxy]methyl]-pyridine.succinate] yielded a melting point of 91.25 °C. For `FCCOc1cccnc1COc1ccc(-c2nn(CC(F)(F)F)cc2-c2ccncc2)cc1` (as salt: succinate) [Compound B10, 3-(2-fluoroethoxy)-2-[[4-[4-(4-pyridinyl)-1-(2,2,2-trifluoroethyl)-1H-pyrazol-3-yl]phenoxy]methyl]-pyridine.succinate], the melting point was 140.72 °C. `FCCCn1cc(-c2ccncc2)c(-c2ccc(OCc3ncccc3OCCF)cc2)n1` (as salt: succinate) [Compound B13, 3-(2-fluoroethoxy)-2-[[4-[1-(3-fluoropropyl)-4-(4-pyridinyl)-1H-pyrazol-3-yl]phenoxy]methyl]pyridine.succinate] gave a melting point of 118.38 °C. With `COc1ccc(COc2ccc(-c3nn(CCCF)cc3-c3ccncc3)cc2)nc1` (as salt: succinate) [Compound B14, 2-[[4-[1-(3-fluoropropyl)-4-(4-pyridinyl)-1H-pyrazol-3-yl]phenoxy]methyl]-5-methoxy-pyridine.0.5 succinate] the melting point was 126.64 °C. In the case of `COc1cccnc1COc1ccc(-c2nn(CCF)cc2-c2ccncc2)cc1` (as salt: succinate) [Compound B16, 2-[[4-[1-(2-fluoroethyl)-4-(4-pyridinyl)-1H-pyrazol-3-yl]phenoxy]methyl]-3-methoxy-pyridine.succinate], the melting point is reported as 178.95 °C. `FCCOc1cccnc1COc1ccc(-c2nn(CCF)cc2-c2ccncc2)cc1` (as salt: succinate) [Compound B17, 3-(2-fluoroethoxy)-2-[[4-[1-(2-fluoroethyl)-4-(4-pyridinyl)-1H-pyrazol-3-yl]phenoxy]methyl]pyridine.succinate] showed a melting point of 114.18 °C.
